“Also recorded” adds a separate entry of the source.
Key:
[1] = test system: L363; experiment: Cell viability assay (Cell Titer-Glo), HMCL; format: cell-based; details: Homo sapiens, L-363, 96H
Procedure: (§1) The panel of 17 HMCL cell lines were incubated with increasing concentrations of Ironomycin (A), AM23 (B) or vehicle for 96H.
(§2) HMCL cell lines were cultured for 4 days in 96-well flat-bottom microtiter plates in RPMI 1640 medium or DMEM medium, 10% or 20% FCS (control medium) in the presence of various compounds. The number of viable cells in culture was determined using the Cell Titer-Glo Luminescent Cell Viability Assay from Promega, Madison, WI, USA using a Centro LB 960 luminometer (Berthold Technologies, Bad Wildbad, Germany).
(§3) This test is based on quantitation of the intracellular ATP present, which signals the presence of metabolically active cells. Data are expressed as the mean percentage of six replicates, normalized to the untreated control.

[2] = test system: MOLP-8; experiment: Cell viability assay (Cell Titer-Glo), HMCL; format: cell-based; details: Homo sapiens; MOLP-8 HMCL, 96H; read-out: IC50
Procedure: as §1, §2, §3

[3] = test system: XG-1; experiment: Cell viability assay (Cell Titer-Glo), HMCL; format: cell-based; details: Homo sapiens; XG-1 HMCL, 96H; read-out: IC50
Procedure: as §1, §2, §3

[4] = test system: XG12; experiment: Cell viability assay (Cell Titer-Glo), HMCL; format: cell-based; details: Homo sapiens; XG12 HMCL, 96H; read-out: IC50
Procedure: as §1, §2, §3

[5] = test system: XG20; experiment: Cell viability assay (Cell Titer-Glo), HMCL; format: cell-based; details: Homo sapiens; XG20 HMCL, 96H; read-out: IC50
Procedure: as §1, §2, §3

[6] = test system: XG21; experiment: Cell viability assay (Cell Titer-Glo), HMCL; format: cell-based; details: Homo sapiens; XG21 HMCL, 96H; read-out: IC50
Procedure: as §1, §2, §3

[7] = test system: XG24; experiment: Cell viability assay (Cell Titer-Glo), HMCL; format: cell-based; details: Homo sapiens; XG24 HMCL, 96H; read-out: IC50
Procedure: as §1, §2, §3

[8] = test system: XG28; experiment: Cell viability assay (Cell Titer-Glo), HMCL; format: cell-based; details: Homo sapiens; XG28 HMCL, 96H; read-out: IC50
Procedure: as §1, §2, §3

[9] = test system: MM cell lines; experiment: Cell growth inhibition in panel of MM cell lines; format: cell-based, human; details: 96H
Procedure: as §1, §2, §3
The therapeutic interest of iron metabolism inhibitors AM5 (Ironomycin) and AM23 was further investigated using large collection of 18 MM cell lines (Moreaux J et al. Haematologica 2011; Vikova V et al. Theranostics 2019). The IC50 of Ironomycin and AM23 respectively are illustrated in the Table 5 hereunder: […]

[10] = test system: XG-1, XG-7 and OPM-2 cells; experiment: Cell cycle analysis (BrdU incorporation/DAPI, flow cytometry); format: cell-based, human; details: IC50 Ironomycin, 72 hours
Procedure: XG-1, XG-7 and OPM-2 cells were incubated with vehicle or with IC50 Ironomycin for 72 hours. Cell cycle was analyzed using flow cytometry, S phase was stained by an anti-BrdU antibody after BrdU incorporation and DNA content was strained by 4′,6-diamidino-2-phénylindole (DAPI). Histograms represent the mean percentage and SD of each cell cycle phase of three independent experiments. * and ** indicate a significant difference of P<0.05 and P<0.01, respectively with paired student t-test.
The cell cycle progression was studied by flow cytometry using the Apoptosis, DNA Damage, and Cell Proliferation Kit (562253, Becton Dickinson). Briefly, cells were labeled with bromodeoxyuridine (BrdU), an analog of the DNA precursor thymidine that can be incorporated into newly synthesized DNA and detected with an antibody against BrdU to measure cell proliferation. After this labeling, the cells were fixed, permeabilized and treated with DNase to expose the BrdU epitopes. Following this treatment, cells were simultaneously stained with fluorochrome-labeled anti-BrdU, anti-cleaved Poly A DP-ribose polymerase 1 (PARP), anti-H2AX phosphorylated at serine 139. They were also stained with DAPI to determine DNA content. Finally, cells were resuspended in staining buffer and analyzed by flow cytometry (Fortessa, Becton Dickinson).

[11] = test system: pan-caspase, caspase3/7 and caspase 9 activity in OPM-2 cells; experiment: Caspase activity by luminometry; format: cell-based, human; details: OPM-2, 48H
Procedure: OPM-2 cells were treated as indicated during 48H and pan-caspase, caspase3/7 and caspase 9 activity were measured by luminometry. 4-OH-cyclophosphamide (80 μM) was used as a positive control (C).

[12] = test system: XG7 and OPM-2 cells; experiment: Cell death with pan caspase inhibitor Q-VD-Oph pretreatment, AnnexinV-PE; format: cell-based, human; details: 20 μM Q-VD-Oph pretreatment, 48H
Procedure: XG7 and OPM-2 cells were pretreated at least 30 minutes by 20 μM of Q-VD-Oph as pan caspase inhibitor before treatment. Cells were treated as indicated during 48H, effect of Ironomycin on cell death induction was analyzed using AnnexinV-PE staining by flow cytometry (B). N=4.
Annexin V-PE staining for apoptosis analysis was performed using the “PE Annexin V Apoptosis Detection Kit I” (559763, Becton Dickinson).

[13] = test system: primary MM cells; experiment: Assay on primary MM cells of patients (flow cytometry); format: cell-based, human; details: n=5, with IL-6
Procedure: Primary MM cells were treated with Ironomycin (A) or AM-23 (B) and incubated during 96H with IL-6. The toxicity on MM cells and non-MM cells was analyzed by flow cytometry and expressed in % of control.
Bone marrow samples were collected after patients' written informed consent in accordance with the Declaration of Helsinki and institutional research board approval from Montpellier University hospital. Cells are obtained from […] of 5 patients with MM. Cells are obtained by density gradient separation and qualified by Flow cytometry.
Cells are cultured in Gibco® RPMI-1640 (Glutamax) medium (#6187-010) with 10% FBS at a density of 0.5×10^6 Cell/mL with 2 ng/mL of interleukin-6. Cells are seeded 24H after thawing and treated with various compounds during 72H.
Total cells were counted with trypan blue and stained with the panel CD38-APC, CD138-PE (Beckman coulter) and analyzed by flow cytometry (Fortessa cytometer, BD Pharmigen). Tumorous MM cells were gated on CD38+ and CD138+.

[14] = test system: XG2 melphalan resistant (XG2 Melph R) cell line; experiment: Drug combination concentration matrix, viability by ATP quantification, Bliss synergy; format: cell-based, human; details: melphalan resistant cell line XG2 MeIR, 96 h
Procedure: XG-7 or XG2 WT (XG2 neg) or XG2 melphalan resistant (XG2 Melph R) cell lines were respectively treated with increasing concentrations of ironomycin combined with melphalan during 96 h and cell viability was tested by ATP quantification to obtain the viability matrix. The synergy matrix was calculated as described in Material and Methods.
as §2
The interaction between the drugs tested in vitro was investigated with a concentration matrix test, in which increasing concentration of each single drug were assessed with all possible combinations of the other drugs. For each combination, the percentage of expected growing cells in the case of effect independence was calculated according to the Bliss equation (Combes et al., 2019): […]
where fuC is the expected fraction of cells unaffected by the drug combination in the case of effect independence, and fuA and fuB are the fractions of cells unaffected by treatment A and B, respectively. […]

## C#CCN[C@@H]1C=C[C@]2(O[C@H]([C@@H](CC)C(=O)[C@@H](C)[C@@H](O)[C@H](C)[C@@H]3O[C@@H]([C@@H](CC)C(=O)O)CC[C@@H]3C)[C@@H](C)C[C@H]2C)O[C@@]12CC[C@@](C)([C@H]1CC[C@](O)(CC)[C@H](C)O1)O2 [Ironomycin]
[1]
  IC50: 13 nM
[2]
  IC50: 64.7 nM
[3]
  IC50: 239 nM
[4]
  IC50: 30 nM
[5]
  IC50: 444 nM
[6]
  IC50: 156 nM
[7]
  IC50: 19 nM
[8]
  IC50: 31 nM
[9]
  cell growth inhibition / toxicity on MM cell lines: significant cell growth inhibition; also recorded: kill MM cells with nanomolar concentration
[10]
  proliferation of MM cells (cell cycle): inhibition of proliferation of MM cells
[11]
  caspase activation: activation of caspases 3/7 and 9
[12]
  inhibition of induced apoptosis by pan caspase inhibitor Q-VD-Oph: partially inhibited
[13]
  toxicity on primary MM cells of patients: validated the therapeutic interest
[14]
  interaction effect, combined with melphalan: remains synergistic

From patent US20250281449A1, “NITROGEN-CONTAINING ANALOGS OF SALINOMYCIN FOR USE IN MULTIPLE MYELOMA (MM)” (Centre National de la Recherche Scientifique, priority 2021, published 2025)
